Experimental data from paper PMC11981937 (Nature, 2025).
Where “and” joins values, the source holds several entries; their conditions need not be identical. Equal entries are not always repeated. Entries after “also recorded” stand apart in the source; their conditions may differ. Where two headings read alike, the source gives them in different places.

Key:
SARS-CoV-2 (B1 strain) = assay: microbe, parasite or virus in culture; assay type: cell-based; conditions: Severe acute respiratory syndrome coronavirus 2; SARS-CoV-2 B1, in a variety of cell types
WIV-1 = assay: organism not typed; assay type: cell-based, bat WIV-1
HCoV-229E = assay: microbe, parasite or virus in culture; assay type: cell-based; conditions: Human coronavirus 229E
HCoV-NL63 = HCoV-NL63 CPE reduction assay in LLC-MK2 cells; assay type: cell-based
HCoV-OC43 = HCoV-OC43 antiviral CPE reduction assay in MRC-5 cells; assay type: cell-based
Text: 161 determined with Promega CellTiter 96™ via a colorimetric assay (MTS assay). Readout was done
162 using a GloMax® Discover Microplate Reader (Promega).
163 Data were normalized taking the infected cells without treatment and the mock non-infected cells
164 as the bottom and top values of the dose-response curves, respectively. Dose-response curves were
165 fitted using non-linear regression analysis employing a sigmoidal model in Graphpad Prism
166 (version 9.5.0). In each experiment, data were presented as mean ± standard error of the mean of
167 3 technical replicates.
168 HCoV-OC43 antiviral CPE reduction assay
169 For the HCoV-OC43 CPE reduction assay, MRC-5 cells were seeded in black or white 96-well
170 plates (Greiner Bio-One) at a density of 10,000 cells/well and incubated overnight at 37°C. The
171 next day, compound was added to the assay plates in either a 4-fold dilution series or 2-fold dilution
172 series. Sequentially, cells were infected with HCoV-OC43 at a final MOI of 0.3. Plates were then
173 incubated for 6 days at 33°C under 5% CO2. […]
174 determined using the Viral ToxGlo™ assay (Promega) on a BioTek spectrophotometer.
175 Cytotoxicity was evaluated in parallel in treated, uninfected cells in a similar set-up with the same
176 readout. EC50 and CC50 values were calculated using GraphPad Prism 9.5.0. […]
181 0.1. […] Readouts for antiviral activity […]

MHV = MHV antiviral assay in Huh7 cells (luciferase); assay type: cell-based, mouse hepatitis virus; conditions: Murine coronavirus, Huh-7, Huh7, MHV (betaCoV), N=2
IBV = assay: microbe, parasite or virus in culture; assay type: cell-based, infectious bronchitis virus
PDCoV = PDCoV antiviral CPE reduction assay in Huh7 cells; assay type: cell-based, porcine deltacoronavirus
[1] = biological target: T1, purified recombinant M protein (Severe acute respiratory syndrome coronavirus 2, UniProt P0DTC5); assay type: binding, SARS-CoV-2; conditions: 5 µM compound
T1 construct: SARS-CoV-2 M protein (1–222, UniProt: P0DTC5); ALFA-tag (C); C-tag (EPEA) (C); made in house; host or cells: Expi293F cells (Invitrogen), transient transfection of a pcDNA3.4 construct

SARS-CoV-2 B1 = assay type: in vivo, Syrian golden hamster
[2] = pre-exposure, 8.33 mg/kg BID, n=5
[3] = pre-exposure, 8.33 mg/kg BID, listed as 87009676-AAA, 8.33 mg/kg
[4] = pre-exposure, 25 mg/kg BID, n=5

## C[C@H]1Cn2ncc(C(=O)Nc3cccc(C#N)c3)c2C(=O)N1c1ccc(C(F)(F)c2ccccc2)cc1 [JNJ-9676, (S)-N-(3-cyanophenyl)-5-(4-(difluoro(phenyl)methyl)phenyl)-6-methyl-4-oxo-4,5,6,7-tetrahydropyrazolo[1,5-a]pyrazine-3-carboxamide]
SARS-CoV-2 (B1 strain)
  EC50: 0.014 to 0.022 µM
WIV-1
  EC50: 0.004 to 0.006 µM
HCoV-229E; read-out: Median EC50
  EC50: > 12.5 µM
HCoV-229E; read-out: Median EC90
  EC90: > 12.5 µM
HCoV-NL63; HCoV-NL63
  antiviral activity (in words): no activity
HCoV-NL63; Human coronavirus NL63, LLC-MK2, HCoV-NL63 (alphaCoV), N=2, read-out: Median EC50
  EC50: > 20 µM
HCoV-NL63; Human coronavirus NL63, LLC-MK2, HCoV-NL63 (alphaCoV), N=2, read-out: Median EC90
  EC90: > 20 µM
HCoV-OC43; Betacoronavirus 1, MRC5, MRC-5, HCOV-OC43 (betaCoV), EC90 could be calculated in one experiment, read-out: Median EC90
  EC90: 4 µM
HCoV-OC43; Betacoronavirus 1, OC43, MRC5, read-out: Median EC50
  EC50: 3.9 µM
MHV; read-out: Median EC50
  EC50: 3.4 µM
MHV; read-out: Median EC90
  EC90: 12.4 µM
IBV; Avian coronavirus, Huh-7, read-out: Median EC50
  EC50: 8 µM
IBV; Avian coronavirus, Huh-7, read-out: Median EC90
  EC90: > 30 µM
IBV; gammacoronavirus IBV
  potency (in words): single-digit micromolar potency
PDCoV; Coronavirus HKU15, Huh-7, Huh7, PDCoV (deltaCoV), N=2, read-out: Median EC50
  EC50: > 30 µM
PDCoV; Coronavirus HKU15, Huh-7, Huh7, PDCoV (deltaCoV), N=2, read-out: Median EC90
  EC90: > 30 µM
PDCoV; PDCoV
  antiviral activity (in words): no activity
[1]
  compound recovery with M-protein:Fab B complex compared to M protein alone or M-protein:Fab E complex: significantly higher
[1]; 5 µM M protein
  compound recovery with M protein relative to buffer-only control: reproducible JNJ-9676 recovery
SARS-CoV-2 B1; Syrian golden hamster model
  lowest effective dose: 25 mg per kg BID
SARS-CoV-2 B1; [2]
  Histopathology score, average: 1.80
  Histopathology score, median: 2.00
  Infectious virus in the lung (TCID50/mg), average Log 10: 4.72 Log 10
  Infectious virus in the lung (TCID50/mg), median Log 10: 4.67 Log 10
  Viral load (viral RNA) in the lung, average Log 10: 4.56 Log 10
  Viral load (viral RNA) in the lung, median Log 10: 4.62 Log 10
SARS-CoV-2 B1; [3]
  Histopathology score, individual animal: 2 and 1.5
  Infectious virus in the lung (TCID50/mg), Log 10, individual animal: 5.82 Log 10 and 3.86 Log 10 and 4.99 Log 10 and 4.24 Log 10 and 4.67 Log 10
  Infectious virus in the lung, individual animal: 662125.31 TCID50/mg and 7237.18 TCID50/mg and 98821.18 TCID50/mg and 17573.17 TCID50/mg and 46447.60 TCID50/mg
  Viral load (viral RNA) in the lung, Copy number, individual animal: 2.23E+04 and 1.34E+05 and 8.49E+02 and 4.14E+04 and 6.27E+05
  Viral load (viral RNA) in the lung, Log 10, individual animal: 4.35 Log 10 and 5.13 Log 10 and 2.93 Log 10 and 4.62 Log 10 and 5.80 Log 10
SARS-CoV-2 B1; pre-exposure, 25 mg per kg BID
  cumulative histopathological lung score (in words): reduced to the baseline; also recorded: significantly reduced
SARS-CoV-2 B1; pre-exposure, 25 mg per kg BID, oral
  reduction of viral load in the lung: 3.5 log10[RNA copies per mg lung]
SARS-CoV-2 B1; [4]
  Histopathology score, average: 1.40
  Histopathology score, median: 1.50
  Infectious virus in the lung (TCID50/mg), average Log 10: 0.81 Log 10
  Infectious virus in the lung (TCID50/mg), median Log 10: 1.28 Log 10
  Viral load (viral RNA) in the lung, average Log 10: 9.46 Log 10
